Here are results for six compounds from the NIST ThermoML archive (doi:10.1021/je0341256).

Values joined by “and” are separate entries in the source; they are usually repeats but may differ in a detail not shown here. Identical values can stand only once. ± gives the expanded uncertainty stated by the source.

For this data set the following is noted: Liquid, Closed cell (Static) method.

As a reminder, the vapor or sublimation pressure is the pressure of vapour in equilibrium with the condensed phase. Take `CCC(C)O` (centres undefined) [butan-2-ol]: the “vapor or sublimation pressure” value (332.08 K) was 17.27 ± 0.4 kPa.
With `CCO` [ethanol], under “332.06 K”, the “vapor or sublimation pressure” value came out at 44.67 ± 0.43 kPa.
As to `CO` [methanol], where the note is “332.08 K”, the “vapor or sublimation pressure” value is given as 80.97 ± 0.48 kPa.
With `C/C=C/C` [(E)-2-butene], the “vapor or sublimation pressure” value is, setting by setting: (332.04 K) 605.54 ± 2.1 kPa; (332.06 K) 605.74 ± 2.1 kPa; (332.07 K) 606.94 ± 2.1 kPa; (332.08 K) 606.44 ± 2.1 kPa and 606.14 ± 2.1 kPa.
For `CC(C)(C)O` [2-methylpropan-2-ol], under “332.06 K”, the “vapor or sublimation pressure” value is recorded as 36.97 ± 0.42 kPa.
For `CC(C)O` [propan-2-ol], the “vapor or sublimation pressure” value (332.03 K) is recorded as 36.47 ± 0.42 kPa.
